From paper PMC6309922, “(ADP-ribosyl)hydrolases: Structural Basis for Differential Substrate Recognition and Inhibition” (Cell Chemical Biology, 2018)
Like-named read-outs stand apart in the source and are kept apart here. Marks after values point to notes of the source that are not given here.

Experiments:
hARH1 [1] = biological target: T1, hARH1 (Homo sapiens, UniProt P54922); experiment: Removal of Arg-ADP-ribosylation from HeLa cell extracts (32P autoradiography); format: biochemical; conditions: arginine ADP-ribosylated whole cell lysate as substrate; 1-1,000 μM compound
T1 construct: made in house; host or cells: E. coli Rosetta (DE3)
Description: In vitro modification of proteins from HeLa cell extracts by mARTC2.2 recombinant protein was performed, with minor modifications, as described earlier ([Palazzo et al., 2016]). Briefly, cells were grown to confluence on two 10-cm dishes, washed thrice with 50 mM TrisHCl (pH 7.5) and 200 mM NaCl and lysed in 800 μL of 50 mM Tris-HCl pH 7.5, 150 mM NaCl, 0.5% Triton X-100, 0.2 mM DTT and 1 μM olaparib at 4°C supplemented with cOmplete™ EDTA-free protease inhibitor (Roche). The cell extract was clarified by centrifugation. 12 uL of extract per reaction were supplemented with 15 mM MgCl2, 1 μM mARTC2.2 and 1 μCi ^32P-NAD^+ and incubated for 15 min at 30°C. Lysates were further incubated in presence of hydrolases for 45 min at 30°C. Reactions were stopped by addition of LDS sample buffer (Life Technologies) and incubation at 95°C for 3 min. Samples were then analysed by SDS-PAGE and autoradiography. For inhibitor study the hARH1 was pre-incubated with indicated amount of inhibitor for 5 min at RT.

LchARH3 [2] = biological target: T2, LchARH3 (Latimeria chalumnae, UniProt H3BCW1); format: biochemical; conditions: for inhibitory potential against ARH3 (in words): serine MARylated histone H3 peptide as substrate, 1-1,000 μM compound; for support of hydrolysis of Ser-ADPr and PAR by metal (in words): MgII-stripped enzyme, 100 μM metal salt
T2 construct: LchARH3 (GenBank: XP_005988572; aa residues 10-362); made in house; host or cells: E. coli Rosetta (DE3)
T2 sequence (H3BCW1 10-356 limits assumed): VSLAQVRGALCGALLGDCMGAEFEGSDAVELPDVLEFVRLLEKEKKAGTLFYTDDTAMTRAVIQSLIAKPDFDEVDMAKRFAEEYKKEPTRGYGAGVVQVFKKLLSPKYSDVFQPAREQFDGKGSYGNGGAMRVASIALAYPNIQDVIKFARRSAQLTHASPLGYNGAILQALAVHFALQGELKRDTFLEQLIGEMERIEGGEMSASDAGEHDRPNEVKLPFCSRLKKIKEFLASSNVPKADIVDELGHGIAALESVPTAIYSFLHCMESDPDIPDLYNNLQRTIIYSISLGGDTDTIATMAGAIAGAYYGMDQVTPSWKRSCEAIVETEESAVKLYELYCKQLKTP
Description: (§1) ARH3 activity assays were performed essentially as described ([Fontana et al., 2017]). Briefly, H3 peptide (aa 1-20, biotinylated) was modified by incubation with 0.5 μM PARP1, 1 μM HPF1 and activated DNA (Trevigen) in assay buffer (50 mM TrisHCl [pH 8], 200 mM NaCl, 2 mM MgCl2, 1 mM DTT, 10 μM NAD^+ and 1 μCi ^32P-NAD^+). Reactions were incubated for 30 min at 30°C and stopped by addition of 1 μM olaparib. Reaction were further incubated in presence of 1 μM hydrolase for 1 h at 30°C. Reactions were stopped by addition of LDS sample buffer (Life Technologies) and incubation at 95°C for 3 min. Samples were then analysed by SDS-PAGE, immunoblot and autoradiography. For inhibitor study the ARH3 was pre-incubated with indicated amount of inhibitor for 5 min at RT.

hARH1 [3] = biological target: T1, hARH1; experiment: Enzyme kinetics and inhibition assay with fluorogenic substrate TFMU-ADPr; format: biochemical; conditions: for IC50: 20 μM TFMU-ADPr as substrate, triplicate
Description: (§2) Reactions were performed as described in ([Drown et al., 2018]). Briefly, reactions were carried out in 384-well plates using 50 mM Na2HPO4 (pH 7.4), 10 mM MgCl2, 5 mM DTT and indicated amounts of TFMU-ADPr as substrate. After shaking for 5 s, fluorescence was recorded at 5 s intervals for 15 min on a Molecular Devices SpectraMax M3 microplate reader (reader settings: λEx 385 nm, λEm 502 nm, λcutoff 495 nm, 6 reads/well, low gain). Initial reaction rates were determined by fitting the linear portions of reaction progress curves. Initial rates were plotted against substrate concentration and fit to the Michaelis-Menton equation using a non-linear curve-fitting algorithm in GraphPad Prism 6.
(§3) For inhibitor studies enzymes and inhibitor were pre-incubated for 5 min at RT before addition of substrate. Percent inhibition was calculated with the no enzyme and no inhibitor reactions as positive and negative controls, respectively. Dose-response curves were fit using GraphPad Prism 6.

hARH3 [4] = biological target: T3, hARH3 (Homo sapiens, UniProt Q9NX46); experiment: De-modification of Ser-ADP-ribosyl H3 peptide and degradation of PAR (32P autoradiography); format: biochemical; conditions: for support of hydrolysis of Ser-ADPr and PAR by metal (in words): MgII-stripped enzyme, 100 μM metal salt
T3 construct: made in house; host or cells: E. coli Rosetta (DE3)
T3 sequence (Q9NX46 1-363): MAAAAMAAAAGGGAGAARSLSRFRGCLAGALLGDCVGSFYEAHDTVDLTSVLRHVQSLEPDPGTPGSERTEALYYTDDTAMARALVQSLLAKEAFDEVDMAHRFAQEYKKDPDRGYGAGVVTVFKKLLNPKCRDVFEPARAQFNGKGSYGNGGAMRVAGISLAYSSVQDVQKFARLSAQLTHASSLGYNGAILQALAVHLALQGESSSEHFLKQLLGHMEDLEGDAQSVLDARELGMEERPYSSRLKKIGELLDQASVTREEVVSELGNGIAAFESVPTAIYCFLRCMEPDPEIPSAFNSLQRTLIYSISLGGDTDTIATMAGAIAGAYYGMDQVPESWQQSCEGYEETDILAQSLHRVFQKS
Description: as §1

hARH3 [5] = biological target: T3, hARH3; experiment: Enzyme kinetics and inhibition assay with fluorogenic substrate TFMU-ADPr; format: biochemical; conditions: triplicate; for IC50: 20 μM TFMU-ADPr as substrate
Description: as §2, §3

hARH3 [6] = biological target: T3, hARH3; parameters: method as in Drown et al., 2018; conditions: in situ generation of Arg-ADPr; ref Drown et al., 2018; cited from earlier work
LchARH3 [7] = biological target: T2, LchARH3; experiment: biochemical; format: binding; conditions: for TM / ΔTM: 100 μM metal salt; for TM: n = 6; for ΔTM: ΔTM = TM (salt) - TM (apo)
Description: LchARH3 WT was purified as described above and dialysed against 50 mM TrisHCl (pH 8), 200 mM NaCl, 20 mM EDTA, 1 mM DTT and 5% (v/v) glycerol. EDTA was removed by dialysing twice against 50 mM TrisHCl (pH 8), 200 mM NaCl, 1 mM DTT and 5% (v/v) glycerol. Each dialysis step was carried out with a minimum 1:1,000 ratio of sample to buffer. Only samples with purity >90% (as assessed by SDS-PAGE) were used for subsequent DSF experiments.
Assays were performed essentially as described earlier ([Vivoli et al., 2014]). Briefly, 10 μM LchARH3 wt EDTA-treated, 10x SYPRO® Orange (ThermoFisher Scientific) and indicated amounts of metal salts in assay buffer (50 mM TrisHCl [pH 8], 200 mM NaCl and 1 mM DTT) were thermal denaturated in MicroAmp® Fast plates (Life Technologies) in a StepOne qPCR instrument (ThermoFisher Scientific). The initial temperature of 24°C was held for 2.5 min, followed by a ramp to 97.5°C at 0.5°C/45 sec and then 2 min pause at 98°C. Curves were fit using GraphPad Prism 6. For analysis recorded data were cropped two data points after recorded fluorescence signal maximum and the resulting curves fitted using the Boltzman equation F=BOTTOM+(TOP−BOTTOM)/1+e^(TM−T/SLOPE)
with TM, melting temperature; T, temperature; SLOPE, steepness of curve. For the inference of the binding constant the determined TM’s were plotted and analysed using a single binding site model: TM=BOTTOM+((TOP−BOTTOM)∗(1−(P−Kd−M+(P+M+Kd)^2∗(4∗P∗M)/2P))) with P, protein concentration; M, metal salt concentration; Kd dissociation constant.

hARH3 [8] = biological target: T3, hARH3; experiment: Differential scanning fluorimetry (DSF) with metal salts, MgII-depleted enzyme; format: binding; conditions: for TM / ΔTM: 100 μM metal salt; for TM: n = 3; for ΔTM: ΔTM = TM (salt) - TM (apo)
[9] = DSF, 16 metal salt dilutions, single-site ligand-binding model, triplicate ± SD, read-out: Kd
[10] = DSF, rounded, read-out: Kd of magnesium on its own

T1 sequence (P54922 whole entry): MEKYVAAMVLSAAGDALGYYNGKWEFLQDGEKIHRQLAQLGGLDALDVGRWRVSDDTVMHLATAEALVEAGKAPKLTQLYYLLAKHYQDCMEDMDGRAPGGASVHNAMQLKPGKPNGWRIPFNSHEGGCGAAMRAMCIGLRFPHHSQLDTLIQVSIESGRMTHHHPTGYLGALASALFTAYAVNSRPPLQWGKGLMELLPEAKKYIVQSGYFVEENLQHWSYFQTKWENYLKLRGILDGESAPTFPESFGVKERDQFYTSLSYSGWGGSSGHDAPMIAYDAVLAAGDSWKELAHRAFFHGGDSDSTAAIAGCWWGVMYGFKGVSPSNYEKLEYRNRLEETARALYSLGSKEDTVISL

Structure (SMILES) | TM (LchARH3 [7]) [°C] | ΔTM (LchARH3 [7]) | TM (hARH3 [8]) [°C] | ΔTM (hARH3 [8]) | further results
Nc1ncnc2c1ncn2[C@@H]1O[C@H](CO[P@](=O)(O)O[P@@](=O)(O)OC[C@H]2NC[C@H](O)[C@@H]2O)[C@@H](O)[C@H]1O [ADP-HPD, adenosine diphosphate (hydroxymethyl)pyrrolidinediol] | – | – | – | – | inhibitory potential against hARH1 (in words) (hARH1 [1]): only mild activity; inhibitory potential against ARH3 (in words) (LchARH3 [2]): inhibited; inhibition of hARH1 (in words) (hARH1 [3]; IC50 conditions, 20 μM TFMU-ADPr): no inhibition
Nc1ncnc2c1ncn2C1OC(COP(=O)(O)OP(=O)(O)OCC2CC(O)CN2)C(O)C1O (centres unmarked) [ADP-HPM] | – | – | – | – | inhibitory potential against hARH1 (in words) (hARH1 [1]): only minor inhibitor potential; inhibitory potential against ARH3 (in words) (LchARH3 [2]): only minor inhibitor potential; IC50 (hARH1 [3]): 164 µM
Nc1ncnc2c1ncn2C1OC(COP(=O)(O)OP(=O)(O)OCC2OC(O)C(O)C2O)C(O)C1O (centres unmarked) [ADPr, ADP-ribose] | – | – | – | – | inhibitory potential against hARH1 (in words) (hARH1 [1]): only mild activity; inhibitory potential against ARH3 (in words) (LchARH3 [2]): inhibited; inhibitory potential against ARH3 (in words) (hARH3 [4]; serine MARylated histone H3 peptide as substrate, 1-1,000 μM compound): inhibited; IC50 (hARH1 [3]): 228 µM; IC50 (hARH3 [5]): 3.2 µM; Ki (hARH3 [5]; TFMU-ADPr substrate): 1.08 ± 0.08 µM
NC(=NCCC[C@H](N)C(=O)O)N[C@H]1O[C@H](COP(=O)(O)OP(=O)(O)OC[C@H]2O[C@@H](n3cnc4c(N)ncnc43)[C@H](O)[C@@H]2O)[C@@H](O)[C@H]1O [Arg-ADPr, arginine-ADP-ribose] | – | – | – | – | inhibition of hARH3 (in words) (hARH3 [6]): potent, cellular inhibitor of hARH3
[Ca+2] [CaCl2, Calcium chloride dehydrate] | 44.4 ± 0.08 | 4.2 ^d °C | 50.1 ± 0.08 | 3.4 ^d °C | Kd (LchARH3 [7]; [9]): 431 ± 68 µM; Kd (hARH3 [8]; [9]): 266 ± 42 µM; inhibition of ARH3 by calcium (in words) (LchARH3 [2]; de-MARylation assay in presence of 1 mM MgCl2 or 1 mM MnCl2, 1-2,000 μM CaCl2): inhibitor of magnesium-, but not manganese-, supplemented ARH3; IC50 (hARH3 [5]): 13.7 µM
O.O.O.O.O.O.[Cl-].[Cl-].[Co+2] [CoCl2, Cobalt(II) chloride hexahydrate] | 39.6 ± 0.28 | −0.6 °C | 46.7 ± 0.09 | 0.0 °C | –
O.O.O.O.O.O.[Cl][Cr]([Cl])[Cl] [CrCl3, Chromium(III) chloride hexahydrate] | 40.1 ± 0.21 | −0.1 °C | 46.5 ± 0.04 | −0.3 °C | –
[Cl][Cu][Cl] [CuCl2, Copper(II) chloride] | 39.0 ± 0.21 | −1.2 ^d °C | 40.5 ± 0.10 | −6.2 ^d °C | –
[Cl-].[Li+] [LiCl, Lithium chloride] | 40.1 ± 0.16 | −0.1 °C | 46.6 ± 0.15 | −0.1 °C | –
[Mg+2] [MgCl2, Magnesium chloride hexahydrate] | 41.4 ± 0.17 | 1.3 ^d °C | 46.7 ± 0.11 | 0.0 °C | Kd (LchARH3 [7]; [9]): 2300 ± 257 µM; Kd (LchARH3 [7]; [10]): ~2300 µM; Kd (hARH3 [8]; [9]): 5410 ± 322 µM; Kd (hARH3 [8]; [10]): ~5400 µM; apparent concentration needed to restore activity (LchARH3 [2]; EDTA-treated LchARH3, 1-1000 µM MgCl2): ~50 µM; support of hydrolysis of Ser-ADPr and PAR by metal (in words) (LchARH3 [2]): able to support hydrolysis of Ser-ADPr and PAR; support of hydrolysis of Ser-ADPr and PAR by metal (in words) (hARH3 [4]): able to support hydrolysis of Ser-ADPr and PAR
[Mn+2] [MnCl2, Manganese(II) chloride tetrahydrate] | 51.5 ± 0.23 | – | 52.6 ± 0.09 | – | Kd (LchARH3 [7]): 175 ± 24 µM; Kd (hARH3 [8]): 208 ± 12 µM; support of hydrolysis of Ser-ADPr and PAR by metal (in words) (LchARH3 [2]): able to support hydrolysis of Ser-ADPr and PAR; support of hydrolysis of Ser-ADPr and PAR by metal (in words) (hARH3 [4]): able to support hydrolysis of Ser-ADPr and PAR
O.O.O.O.O.O.[Cl][Ni][Cl] [NiCl2, Nickel(II) chloride hexahydrate] | 40.7 ± 0.22 | 0.5 °C | 46.4 ± 0.09 | −0.3 °C | –
[Cl-].[Cl-].[Zn+2] [ZnCl2, Zinc chloride] | 37.4 ± 0.25 | −2.8 ^d °C | 44.1 ± 0.07 | −2.6 ^d °C | –
